Each structure is given as a SMILES string.

The test system of the test is C57Bl/6 male mice. Nature of the test: Mouse oropharyngeal bleomycin model of lung fibrosis. The conditions noted are these: dosed prophylactically at 60 mg/kg p.o. The test is classed as in vivo. As to the method: Example B-3: Mouse Oropharyngeal Bleomycin Model of Lung Fibrosis
Lung fibrosis is induced in C57Bl/6 male mice by administering bleomycin (0.1-4 U/kg) via oropharyngeal instillation. Mice are either pretreated with vehicle or test compound (1 day to 1 hour) orally, intraperitoneally, intravenously or subcutaneously before bleomycin installation (prophylactic dosing) or 7-14 days post bleomycin instillation (therapeutic dosing). The route and frequency of dosing are based on previously determined pharmacokinetic properties for the LOXL2 inhibitor in mouse. After bleomycin instillation animals are monitored daily for weight loss and clinical signs for 14-28 days prior to sacrifice. […] For histological examination, lung slices are stained with Masson's trichrome or Picro-Sirius red to measure cross-linked collagen as an indicator of fibrosis and an Ashcroft score of lung fibrotic and inflammatory damage determined. In addition, immunohistochemistry of fibrotic proteins such as a-smooth muscle actin can be recorded. […] After the acid hydrolysis, 25-100 μl of the supernatant is dried down, resuspended in 25 μl water and the hydroxyproline content determined by the addition of 0.5 ml Chloramine T solution (140 mg Chloramine T in 6.5 ml ddH2O+1 ml n-propanol+2.5 ml 1M sodium acetate) and incubation at room temperature for 20 min. […]

With `NCc1cc(=O)c2cc(Br)ccc2[nH]1` [Compound 1-3, 2-(Aminomethyl)-6-bromoquinolin-4(1H)-one], the “efficacy in mouse oropharyngeal bleomycin model of lung fibrosis” value is recorded as “efficacious”.

The values are drawn from patent publication US11058676B2, “Quinolinone lysyl oxidase-like 2 inhibitors and uses thereof” (PHARMAKEA, INC., priority 2016, dated 2021).
